# Read-outs that look alike come from different tables or passages of the source.
# Legend:
# [1] = test system: MSSA; test: MIC, broth microdilution, clinical isolates: MSSA; assay type: cell-based; conditions: Staphylococcus aureus
# Description: (§1) To assess the MICs for antibiotic susceptibility, Gram-positive bacteria isolated from human clinical specimens were obtained from several general hospitals in Seoul, Korea, during 2002–2018. Staphylococcus aureus Giorgio and Streptococcus pneumoniae ATCC49619 were used to test in vivo efficacies against […], in mice.
# (§2) The MICs of the antimicrobial agents were determined by a twofold microdilution broth method, as described by the Clinical and Laboratory Standards Institute. Briefly, test organisms were grown on Mueller–Hinton agar (MHA, BD Difco, Sparks, MD, USA) plates, subcultured into cation-adjusted Mueller–Hinton broth (CAMHB, BD Difco, Sparks, MD, USA), and incubated for 18 h at 35 °C. For S. pneumoniae culture, 5% sheep blood (Hanil Comed, Seongnam, Korea) was added. The cultured bacteria were diluted using phosphate-buffered saline (PBS) to achieve a bacterial cell density of approximately 5 × 10^6 CFU/mL. All test organisms were loaded into 96-well plates containing serial dilutions of the antimicrobial agents to achieve a concentration of 5 × 10^4 CFU/well. The plates were incubated at 35 °C for 18–20 h and examined for bacterial growth.
# [2] = test system: MRSA; test: MIC, broth microdilution, clinical isolates: MRSA; assay type: cell-based, Staphylococcus aureus; conditions: Staphylococcus aureus, MRSA
# Description: as §1, §2
# [3] = test system: CNS (coagulase-negative staphylococci); test: MIC, broth microdilution, clinical isolates: CNS; assay type: cell-based
# Description: as §1, §2
# [4] = test system: VRE; test: MIC, broth microdilution, clinical isolates: VRE; assay type: cell-based, vancomycin-resistant Enterococcus; conditions: Enterococcus, VRE
# Description: as §1, §2
# [5] = test system: S. pneumoniae; test: MIC, broth microdilution, clinical isolates: S. pneumoniae; assay type: cell-based, Streptococcus pneumoniae
# Description: as §1, §2
# [6] = test system: Vancomycin-sensitive E. faecalis; test: MIC, broth microdilution, clinical isolates: vancomycin-sensitive E. faecalis; assay type: cell-based, Enterococcus faecalis; conditions: Enterococcus faecalis
# Description: as §1, §2
# [7] = test system: Vancomycin-sensitive E. faecium; test: MIC, broth microdilution, clinical isolates: vancomycin-sensitive E. faecium; assay type: cell-based, Enterococcus faecium; conditions: Enterococcus faecium
# Description: as §1, §2
# [8] = test system: S. aureus Giorgio; test: MIC against S. aureus Giorgio; assay type: cell-based, Staphylococcus aureus; conditions: Staphylococcus aureus
# Description: as §2
# [9] = test system: S. pneumoniae ATCC49619; test: MIC against S. pneumoniae ATCC49619; assay type: cell-based; conditions: Streptococcus pneumoniae, ATCC49619
# Description: as §2
# [10] = test system: MRSA CCARM 3167; test: MIC against MRSA CCARM 3167; assay type: cell-based; conditions: Staphylococcus aureus
# Description: as §2
# [11] = test system: VRE 3; test: MIC against VRE 3; assay type: cell-based, vancomycin-resistant Enterococcus; conditions: Enterococcus
# Description: as §2
# [12] = test system: S. aureus Giorgio; test: Time-kill assay, S. aureus Giorgio; assay type: cell-based, Staphylococcus aureus; conditions: 2× and 4× MIC, 24 h
# Description: (§3) Time-kill analysis was performed by the NCCLS M26-A method. The test organisms (S. aureus Giorgio, S. pneumoniae ATCC49619, MRSA CCARM 3167, and VRE 3) incubated in CAMHB for 18 h at 35 °C were diluted to 10^5 CFU/mL with fresh CAMHB, and the diluted cultures were preincubated for 2 h. For S. pneumoniae culture, 5% sheep blood (Hanil Comed, Seongnam, Korea) was added. […] Culture aliquots (0.1 mL) were removed after 0, 2, 4, 6 and 24 h of incubation, and serial 10-fold dilutions were prepared in saline as needed. The numbers of viable cells were determined on drug-free MHA plates after 20 h of incubation. A compound was considered bactericidal if the original inoculum was reduced by 3 log CFU/mL (99.9%) at each concentration or was considered bacteriostatic if the inoculum was reduced by 0–3 log CFU/mL.
# [13] = test system: S. pneumoniae ATCC49619; test: Time-kill assay, S. pneumoniae ATCC49619; assay type: cell-based, Streptococcus pneumoniae; conditions: 2× and 4× MIC, 24 h
# Description: as §3
# [14] = test system: MRSA CCARM 3167; test: Time-kill assay, MRSA CCARM 3167; assay type: cell-based, Staphylococcus aureus; conditions: 2× and 4× MIC, 24 h
# Description: as §3
# [15] = test system: S. aureus Giorgio; test: Neutropenic mouse thigh infection model; assay type: in vivo, female ICR mice; conditions: s.c. 4 and 20 mg/kg at 3 and 6 h after infection
# Description: (§4) For the respiratory tract infection model, neutropenic mice were anesthetized and intranasally inoculated with a 50 μL suspension of S. pneumoniae ATCC49619 (4.4 × 10^8 CFU/mL). For the thigh infection model, the neutropenic mice were administered an intramuscular injection of a 100 μL suspension of S. aureus Giorgio (1 × 10^6 CFU/mL) into both thighs. For both models, four mice were included in each group. At 2 h after infection, two mice were sacrificed, and the infected thighs or lungs (n = 4) were excised to determine the initial bacterial levels. […] At 24 h after infection, the mice were sacrificed by cervical dislocation; their thighs or lungs were removed, homogenized, serially diluted with saline, and plated onto MHA to count the number of bacteria remaining. The number of viable bacterial cells (CFU) in the thighs or lungs of vehicle- and drug-treated mice was determined.
# [16] = test system: S. pneumoniae ATCC49619; test: Neutropenic mouse respiratory tract infection model; assay type: in vivo, female ICR mice
# Description: as §4
# [17] = test system: S. aureus; set-up: method as in PMID 28416551; conditions: s.c., cited from earlier work
# [18] = cited from earlier work
structure (smiles),measurement,setting,value
CN[C@H](CC(C)C)C(=O)N[C@H]1C(=O)N[C@@H](CC(N)=O)C(=O)N[C@H]2C(=O)N[C@H]3C(=O)N[C@H](C(=O)N[C@H](C(=O)O)c4cc(O)cc(O)c4-c4cc3ccc4O)[C@H](O)c3ccc(c(Cl)c3)Oc3cc2cc(c3O[C@@H]2O[C@H](CO)[C@@H](O)[C@H](O)[C@H]2O[C@H]2C[C@](C)(N)[C@H](O)[C@H](C)O2)Oc2ccc(cc2Cl)[C@H]1O [Vancomycin],MIC50,[1],1 µg/mL
same,MIC90,[1],2 µg/mL
same,MIC50,[2],1 µg/mL
same,MIC90,[2],2 µg/mL
same,MIC50,[3],2 µg/mL
same,MIC90,[3],4 µg/mL
same,MIC50,[4],> 32 µg/mL
same,MIC90,[4],> 32 µg/mL
same,MIC90,[5]; 27 clinical isolates,0.5 µg/mL
same,MIC50,[5]; Streptococcus pneumoniae,0.25 µg/mL
same,MIC90,[5]; Streptococcus pneumoniae,0.5 µg/mL
same,MIC50,[6],2 µg/mL
same,MIC90,[6],2 µg/mL
same,MIC50,[7],1 µg/mL
same,MIC90,[7],2 µg/mL
same,MIC,[8],2 µg/mL
same,MIC,[9],0.5 µg/mL
same,MIC,[10],2 µg/mL
same,MIC,[11],64 µg/mL
same,time-kill activity,[12],bactericidal (considered bactericidal if the original inoculum was reduced by 3 log CFU/mL (99.9%) at each concentration)
same,time-kill activity,[13],bactericidal (considered bactericidal if the original inoculum was reduced by 3 log CFU/mL (99.9%) at each concentration)
same,time-kill activity,[14],bactericidal (considered bactericidal if the original inoculum was reduced by 3 log CFU/mL (99.9%) at each concentration)
same,antibacterial effect in thigh infection model,[15],bacteriostatic activity
same,in vivo effect (bacteriostatic or bactericidal),[16]; 4 mg/kg bid s.c.,bacteriostatic
same,in vivo effect (bacteriostatic or bactericidal),[16]; 20 mg/kg bid s.c.,bactericidal
same,reduction of the starting bacterial burden compared to the 2-h control group,"[16]; second trial, 20 mg/kg bid",1.46 log10 CFU/lung
same,in vivo effect,[17]; high doses of 20–320 mg/kg bid,bactericidal effects
same,in vivo effect,[17]; low doses of 0.3–5 mg/kg bid,bacteriostatic effects
same,bound to plasma proteins,[18],10–50%

# — PMC9311539, “Antibacterial Activity against Clinical Isolates and In Vivo Efficacy of Coralmycins” (Antibiotics, 2022)
